Source: patent US20220402882A1, “HERBICIDAL COMPOUNDS” (SYNGENTA CROP PROTECTION AG, priority 2019, published 2022)

Columns and labels:
Format in all cases: in vivo
Settings in all cases: 125 g/h, evaluated after 13 days
Setaria faberi (SETFA) [1] = assay: Pre-emergence glasshouse herbicide test
Description: (§1) Seeds of a variety of test species are sown in standard soil in pots (Lolium perenne (LOLPE), Amaranthus retoflexus (AMARE), Abutilon theophrasti (ABUTH), Setaria faberi (SETFA), Echinochloa crus-galli (ECHCG), Ipomoea hederacea (IPOHE)). After cultivation for one day (pre-emergence) or after 8 days cultivation (post-emergence) under controlled conditions in a glasshouse (at 24/16° C., day/night; 14 hours light; 65% humidity), the plants are sprayed with an aqueous spray solution derived from the formulation of the technical active ingredient in acetone/water (50:50) solution containing 0.5% Tween™ 20 (polyoxyethelyene sorbitan monolaurate, CAS RN 9005-64-5). Compounds are applied at 125 g/h unless otherwise indicated. The test plants are then grown in a glasshouse under controlled conditions in a glasshouse (at 24/16° C., day/night; 14 hours light; 65% humidity) and watered twice daily. After 13 days for pre- and post-emergence, the test is evaluated for the percentage damage caused to the plant. The biological activities are shown in the following table on a five-point scale (5=80-100%; 4=60-79%; 3=40-59%; 2=20-39%; 1=0-19%).

[2] = tested on: Ipomoea hederacea (IPOHE); assay: Pre-emergence glasshouse herbicide test
Description: as §1

[3] = tested on: Amaranthus retoflexus (AMARE); assay: Pre-emergence glasshouse herbicide test
Description: as §1

[4] = tested on: Abutilon theophrasti (ABUTH); assay: Pre-emergence glasshouse herbicide test
Description: as §1

[5] = tested on: Echinochloa crus-galli (ECHCG); assay: Pre-emergence glasshouse herbicide test
Description: as §1

Setaria faberi (SETFA) [6] = assay: Post-emergence glasshouse herbicide test
Description: as §1

[7] = tested on: Ipomoea hederacea (IPOHE); assay: Post-emergence glasshouse herbicide test
Description: as §1

[8] = tested on: Amaranthus retoflexus (AMARE); assay: Post-emergence glasshouse herbicide test
Description: as §1

[9] = tested on: Abutilon theophrasti (ABUTH); assay: Post-emergence glasshouse herbicide test
Description: as §1

[10] = tested on: Echinochloa crus-galli (ECHCG); assay: Post-emergence glasshouse herbicide test
Description: as §1

Structure (SMILES)	percentage damage caused to the plant, SETFA (Setaria faberi (SETFA) [1])	percentage damage caused to the plant, IPOHE [2]	percentage damage caused to the plant, AMARE [3]	percentage damage caused to the plant, ABUTH [4]	percentage damage caused to the plant, ECHCG [5]	percentage damage caused to the plant, SETFA (Setaria faberi (SETFA) [6])	percentage damage caused to the plant, IPOHE [7]	percentage damage caused to the plant, AMARE [8]	percentage damage caused to the plant, ABUTH [9]	percentage damage caused to the plant, ECHCG [10]
CCn1nnnc1NC(=O)c1ccc(OC(F)F)c(S(=O)(=O)CC)c1Cl [Compound 1.049]	5 (5=80-100%)	5 (5=80-100%)	5 (5=80-100%)	5 (5=80-100%)	5 (5=80-100%)	5 (5=80-100%)	4 (4=60-79%)	5 (5=80-100%)	5 (5=80-100%)	5 (5=80-100%)
CCCS(=O)(=O)c1c(OC(F)F)ccc(C(=O)Nc2nnnn2C)c1Cl [Compound 1.050]	5 (5=80-100%)	3 (3=40-59%)	5 (5=80-100%)	5 (5=80-100%)	5 (5=80-100%)	5 (5=80-100%)	4 (4=60-79%)	5 (5=80-100%)	5 (5=80-100%)	5 (5=80-100%)
CCCS(=O)(=O)c1c(OC(F)F)ccc(C(=O)Nc2nnnn2CC)c1Cl [Compound 1.051]	5 (5=80-100%)	4 (4=60-79%)	5 (5=80-100%)	5 (5=80-100%)	5 (5=80-100%)	5 (5=80-100%)	4 (4=60-79%)	5 (5=80-100%)	5 (5=80-100%)	5 (5=80-100%)
CC(C)CS(=O)(=O)c1c(OC(F)F)ccc(C(=O)Nc2nnnn2C)c1Cl [Compound 1.052]	5 (5=80-100%)	5 (5=80-100%)	5 (5=80-100%)	5 (5=80-100%)	5 (5=80-100%)	4 (4=60-79%)	5 (5=80-100%)	4 (4=60-79%)	5 (5=80-100%)	4 (4=60-79%)
CCn1nnnc1NC(=O)c1ccc(OC(F)F)c(S(=O)(=O)CC(C)C)c1Cl [Compound 1.053]	5 (5=80-100%)	4 (4=60-79%)	5 (5=80-100%)	5 (5=80-100%)	5 (5=80-100%)	5 (5=80-100%)	5 (5=80-100%)	5 (5=80-100%)	5 (5=80-100%)	5 (5=80-100%)
CC(C)S(=O)(=O)c1c(OC(F)F)ccc(C(=O)Nc2nnnn2C)c1Cl [Compound 1.054]	5 (5=80-100%)	4 (4=60-79%)	5 (5=80-100%)	5 (5=80-100%)	5 (5=80-100%)	4 (4=60-79%)	4 (4=60-79%)	4 (4=60-79%)	4 (4=60-79%)	4 (4=60-79%)
CCn1nnnc1NC(=O)c1ccc(OCC(F)(F)F)c(S(=O)(=O)CC)c1C [Compound 1.063]	5 (5=80-100%)	4 (4=60-79%)	5 (5=80-100%)	5 (5=80-100%)	5 (5=80-100%)	5 (5=80-100%)	3 (3=40-59%)	5 (5=80-100%)	5 (5=80-100%)	5 (5=80-100%)
